Assay results: patent US8895585B2, “Nicotinamide derivative or salt thereof” (FUJIFILM Corporation, priority 2010, dated 2014)
pIC50: −log10 of the molar value.

These compounds were tested against T1, glutathione S-transferase (GST)-fused full-length human Syk protein (Homo sapiens, UniProt P43405) (assay: Syk enzyme assay). Settings: Syk enzyme assay, Test Example 1; read-out: IC50 of Syk-inhibitory activity.
T1 construct: (GST)-fused full-length human Syk protein; GST (glutathione S-transferase); purchased Carna Biosciences
Assay type: biochemical
Summary of the method: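 GST-tagged full-length human Syk (baculovirus) preincubated with compound 15 min at room temperature (pH 7.0, 10 mM MgCl2), then reacted 40 min with 0.4 μM biotinylated peptide substrate and 27 μM ATP (final). Phosphorylation read by HTRF (615/665 nm) after EDTA stop; IC50 reported.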

| pIC50 | Structure (SMILES) |
| --- | --- |
| > 8.00 | CCCC[C@H](CN)Nc1nc(Nc2cncc(C3CC3)c2)c(C(N)=O)cc1F [Example 006-340, (R)-6-((1-aminohexan-2-yl)amino)-2-((5-cyclopropylpyridin-3-yl)amino)-5-fluoronicotinamide] |
| 7.30 to 8.00 | CCCC[C@H](CN)Nc1nc(Nc2cnc(C)c(C)c2)c(C(N)=O)cc1F [Example 006-341, (R)-6-((1-aminohexane-2-yl)amino)-2-((5,6-dimethylpyridin-3-yl)amino)-5-fluoronicotinamide] |
| 7.30 to 8.00 | C[C@H](N)[C@@H](CC1CC1)Nc1nc(Nc2ccc3nccnc3c2)c(C(N)=O)cc1F [Example 006-347, 6-(((2R,3S)-3-amino-1-cyclopropylbutan-2-yl)amino)-5-fluoro-2-((quinoxalin-6-yl)amino)nicotinamide] |
| > 8.00 | COc1cc(Nc2nc(N[C@H](CC3CC3)[C@H](C)N)c(F)cc2C(N)=O)cc(OC)n1 [Example 006-349, 6-(((2R,3S)-3-amino-1-cyclopropylbutan-2-yl)amino)-2-((2,6-dimethoxypyridin-4-yl)amino)-5-fluoronicotinamide] |
| 7.00 to 7.30 | CC[C@H](N)[C@@H](CC)Nc1nc(Nc2ccc3cnn(C)c3c2)c(C(N)=O)cc1F [Example 006-366, 6-(((3R,4S)-4-aminohexan-3-yl)amino)-5-fluoro-2-((1-methyl-1H-indazol-6-yl)amino)nicotinamide] |
| 7.30 to 8.00 | CC[C@H](N)[C@@H](CC)Nc1nc(Nc2cccc3c2cnn3C)c(C(N)=O)cc1F [Example 006-367, 6-(((3R,4S)-4-aminohexan-3-yl)amino)-5-fluoro-2-((1-methyl-1H-indazol-4-yl)amino)nicotinamide] |
| 7.30 to 8.00 | CC[C@H](N)[C@@H](CC)Nc1nc(Nc2cncc(F)c2)c(C(N)=O)cc1F [Example 006-382, 6-(((3R,4S)-4-aminohexan-3-yl)amino)-5-fluoro-2-((5-fluoropyridin-3-yl)amino)nicotinamide] |
| 7.30 to 8.00 | CC[C@H](N)[C@@H](CC)Nc1nc(Nc2cnc(OC)c(-n3nccn3)c2)c(C(N)=O)cc1F [Example 006-391, 6-(((3R,4S)-4-aminohexan-3-yl)amino)-5-fluoro-2-((6-methoxy-5-(2H-1,2,3-triazol-2-yl)pyridin-3-yl)amino)nicotinamide] |
| 7.30 to 8.00 | COc1ncc(Nc2nc(N[C@H](CC3CC3)[C@H](C)N)c(F)cc2C(N)=O)cc1-n1nccn1 [Example 006-393, 6-(((2R,3S)-3-amino-1-cyclopropylbutan-2-yl)amino)-5-fluoro-2-((6-methoxy-5-(2H-1,2,3-triazol-2-yl)pyridin-3-yl)amino)nicotinamide] |
| > 8.00 | CCC[C@@H](Nc1nc(Nc2ccc3c(cnn3CC)c2)c(C(N)=O)cc1F)[C@@H](N)CC [Example 006-399, 6-(((3S,4R)-3-aminoheptan-4-yl)amino)-2-((1-ethyl-1H-indazol-5-yl)amino)-5-fluoronicotinamide] |
| > 8.00 | CCC[C@@H](Nc1nc(Nc2cc(OC)nc(OC)c2)c(C(N)=O)cc1F)[C@@H](N)CC [Example 006-413, 6-(((3S,4R)-3-aminoheptan-4-yl)amino)-2-((2,6-dimethoxypyridin-4-yl)amino)-5-fluoronicotinamide] |
| > 8.00 | CC(C)C[C@@H](Nc1nc(Nc2ccc3c(cnn3CCF)c2)c(C(N)=O)cc1F)[C@H](C)N [Example 006-419, 6-(((2S,3R)-2-amino-5-methylhexan-3-yl)amino)-5-fluoro-2-((1-(2-fluoroethyl)-1H-indazol-5-yl)amino)nicotinamide] |
| 7.00 to 7.30 | CCCC[C@H](CN)Nc1nc(Nc2ccc3c(cnn3CC(F)F)c2)c(C(N)=O)cc1F [Example 006-421, (R)-6-((1-aminohexan-2-yl)amino)-2-((1-(2,2-difluoroethyl)-1H-indazol-5-yl)amino)-5-fluoronicotinamide] |
| > 8.00 | CC(C)C[C@H](CN)Nc1nc(Nc2ccc3c(cnn3CC(F)F)c2)c(C(N)=O)cc1F [Example 006-422, (R)-6-((1-amino-4-methylpentan-2-yl)amino)-2-((1-(2,2-difluoroethyl)-1H-indazol-5-yl)amino)-5-fluoronicotinamide] |
| 7.30 to 8.00 | CC[C@@H](Nc1nc(Nc2ccc3c(cnn3CC(F)F)c2)c(C(N)=O)cc1F)[C@H](C)N [Example 006-423, 6-(((2S,3R)-2-aminopentan-3-yl)amino)-2-((1-(2,2-difluoroethyl)-1H-indazol-5-yl)amino)-5-fluoronicotinamide] |
| 7.30 to 8.00 | CCC[C@@H](Nc1nc(Nc2ccc3c(cnn3CC(F)F)c2)c(C(N)=O)cc1F)[C@H](C)N [Example 006-424, 6-(((2S,3R)-2-aminohexan-3-yl)amino)-2-((1-(2,2-difluoroethyl)-1H-indazol-5-yl)amino)-5-fluoronicotinamide] |
| 7.30 to 8.00 | CCCC[C@@H](Nc1nc(Nc2ccc3c(cnn3CC(F)F)c2)c(C(N)=O)cc1F)[C@H](C)N [Example 006-425, 6-(((2S,3R)-2-aminoheptan-3-yl)amino)-2-((1-(2,2-difluoroethyl)-1H-indazol-5-yl)amino)-5-fluoronicotinamide] |
| 6.00 to 7.00 | C[C@H](N)[C@@H](CC1CC1)Nc1nc(Nc2ccc3c(cnn3CC(F)F)c2)c(C(N)=O)cc1F [Example 006-426, 6-(((2R,3S)-3-amino-1-cyclopropylbutan-2-yl)amino)-2-((1-(2,2-difluoroethyl)-1H-indazol-5-yl)amino)-5-fluoronicotinamide] |
| 7.30 to 8.00 | CCn1ncc2ccc(Nc3nc(N[C@H](CC4CC4)[C@H](C)N)c(F)cc3C(N)=O)cc21 [Example 006-436] |
| 7.30 to 8.00 | C[C@H](N)[C@@H](CC1CC1)Nc1nc(Nc2ccc3cnn(CCF)c3c2)c(C(N)=O)cc1F [Example 006-437, 6-(((2R,3S)-3-amino-1-cyclopropylbutan-2-yl)amino)-5-fluoro-2-((1-(2-fluoroethyl)-1H-indazol-6-yl)amino)nicotinamide] |
| 7.30 to 8.00 | C[C@H](N)[C@@H](CC1CC1)Nc1nc(Nc2ccc3cnn(CC(F)F)c3c2)c(C(N)=O)cc1F [Example 006-438, 6-(((2R,3S)-3-amino-1-cyclopropylbutan-2-yl)amino)-2-((1-(2,2-difluoroethyl)-1H-indazol-6-yl)amino)-5-fluoronicotinamide] |
| 7.30 to 8.00 | C[C@H](N)[C@@H](CC1CC1)Nc1nc(Nc2ccc3c(c2)c(F)nn3C)c(C(N)=O)cc1F [Example 006-439, 6-(((2R,3S)-3-amino-1-cyclopropylbutan-2-yl)amino)-5-fluoro-2-((3-fluoro-1-methyl-1H-indazol-5-yl)amino)nicotinamide] |
| 7.30 to 8.00 | C[C@H](N)[C@@H](CC1CC1)Nc1nc(Nc2ccc3c(F)nn(C)c3c2)c(C(N)=O)cc1F [Example 006-440, 6-(((2R,3S)-3-amino-1-cyclopropylbutan-2-yl)amino)-5-fluoro-2-((3-fluoro-1-methyl-1H-indazol-6-yl)amino)nicotinamide] |
| 7.30 to 8.00 | CCn1nc(F)c2ccc(Nc3nc(N[C@H](CC4CC4)[C@H](C)N)c(F)cc3C(N)=O)cc21 [Example 006-441, 6-(((2R,3S)-3-amino-1-cyclopropylbutan-2-yl)amino)-2-((1-ethyl-3-fluoro-1H-indazol-6-yl)amino)-5-fluoronicotinamide] |
| 7.00 to 7.30 | NC(=O)c1cc(F)c(N[C@@H]2CCCC[C@@H]2N)nc1Nc1cnc(-n2cccn2)c(-n2cccn2)c1 [Example 006-448, 6-(((1R,2S)-2-aminocyclohexyl)amino)-2-((5,6-di(1H-pyrazol-1-yl)pyridin-3-yl)amino)-5-fluoronicotinamide] |
